Data reported in patent publication US8415351B2 (priority 2007, dated 2013).
Read-outs that look alike come from different tables or passages of the source.

Key:
[1] = molecular target: T1, HCV polymerase 1A (Δ21 NS5B, H77) (Hepatitis C virus genotype 1a, UniProt P27958); test: biochemical
T1 construct: 20 to 50 nM Δ21 NS5B
How it was run: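 Incorporation of 1 μM ^3H-UTP, with 20 μM each of CTP and ATP on 5 nM template RNA, ran 2–4 h at room temperature. Spermine-precipitated product was filtered and scintillation-counted. IC50 came from tight-binding non-linear regression of cpm against inhibitor concentration.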

[2] = molecular target: T2, HCV polymerase 1B (Δ21 NS5B, BK) (Hepatitis C virus genotype 1b, UniProt P26663); test: biochemical
T2 construct: 20 to 50 nM Δ21 NS5B
T2 sequence (P26663 2420-2989, stated change not applied): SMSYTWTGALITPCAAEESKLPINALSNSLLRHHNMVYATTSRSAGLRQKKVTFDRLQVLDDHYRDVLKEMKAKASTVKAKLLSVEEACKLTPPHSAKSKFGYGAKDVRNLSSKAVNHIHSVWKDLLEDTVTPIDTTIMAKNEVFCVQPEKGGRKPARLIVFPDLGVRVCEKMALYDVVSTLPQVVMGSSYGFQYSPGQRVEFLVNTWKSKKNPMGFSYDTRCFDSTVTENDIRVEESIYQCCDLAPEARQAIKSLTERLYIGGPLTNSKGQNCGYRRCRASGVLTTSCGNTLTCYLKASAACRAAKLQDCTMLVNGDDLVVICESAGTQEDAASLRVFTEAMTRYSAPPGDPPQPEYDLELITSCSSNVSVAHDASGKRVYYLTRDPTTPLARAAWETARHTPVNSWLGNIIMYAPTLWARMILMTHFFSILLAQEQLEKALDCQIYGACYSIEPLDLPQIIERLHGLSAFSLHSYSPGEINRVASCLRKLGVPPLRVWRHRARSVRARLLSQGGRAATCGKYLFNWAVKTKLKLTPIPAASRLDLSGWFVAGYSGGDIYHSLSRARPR
How it was run: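 Δ21 NS5B (genotype 1b, BK […]) preincubated 15 min RT with inhibitor, 2 mM MnCl2, pH 7.4, 60–125 μM GTP; started with 20 μM CTP/ATP, 1 μM 3H-UTP, 5 nM template RNA, run 2–4 h RT. Spermine-precipitated RNA filter-captured, scintillation counted; IC50 from tight-binding (Morrison) fit.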

[3] = test system: genotype 1a-H77 subgenomic replicon cell line; test: microbe, parasite or virus in culture; assay type: cell-based, HCV; conditions: read-out: EC50 1a
[4] = test system: genotype 1b-Con1 subgenomic replicon cell line; test: microbe, parasite or virus in culture; assay type: cell-based, HCV; conditions: read-out: EC50 1b

T1 sequence (P27958 2421-2990, stated change not applied): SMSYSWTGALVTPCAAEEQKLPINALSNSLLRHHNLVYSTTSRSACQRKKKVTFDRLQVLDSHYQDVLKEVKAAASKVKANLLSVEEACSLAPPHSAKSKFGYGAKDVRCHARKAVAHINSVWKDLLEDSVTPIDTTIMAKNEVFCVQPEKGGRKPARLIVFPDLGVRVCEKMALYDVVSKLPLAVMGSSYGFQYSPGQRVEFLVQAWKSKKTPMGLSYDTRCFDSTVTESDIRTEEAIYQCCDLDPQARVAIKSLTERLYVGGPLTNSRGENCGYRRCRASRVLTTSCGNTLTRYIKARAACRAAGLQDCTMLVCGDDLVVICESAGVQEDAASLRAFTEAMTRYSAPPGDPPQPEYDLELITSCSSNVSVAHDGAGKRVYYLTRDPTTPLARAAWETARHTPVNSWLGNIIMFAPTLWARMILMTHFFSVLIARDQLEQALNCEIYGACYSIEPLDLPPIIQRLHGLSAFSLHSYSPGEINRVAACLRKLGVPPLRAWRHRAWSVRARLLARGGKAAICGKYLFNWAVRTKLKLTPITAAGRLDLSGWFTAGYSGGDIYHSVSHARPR

Compound | IC50 ([1]; IC50 1a) [nM] | IC50 [2] [nM] | EC50 ([3]; Hepatitis C virus) [nM] | EC50 ([4]; Hepatitis C virus) [nM] | IC50 ([2]; read-out: IC50 1b, HCV polymerase 1b) [nM] | EC50 [3] [nM] | EC50 [4] [nM] | IC50 ([1]; read-out: IC50 1a) [nM] | IC50 ([2]; HCV polymerase 1b, read-out: IC50 1b) [nM] | EC50 ([3]; genotype 1a-H77 replicon, luciferase reporter) [nM] | EC50 ([4]; genotype 1b-Con1 replicon, luciferase reporter) [nM]
COc1c(-c2ccc3c(c2)CC[C@@H]3CNS(C)(=O)=O)cc(-n2ccc(=O)[nH]c2=O)cc1C(C)(C)C (single isomer, unassigned) [IB-L0-2.9] | < 10 | < 10 | < 10 | < 10 |  |  |  |  |  |  | 
COc1c(-c2ccc3c(c2)CC[C@H]3CNS(C)(=O)=O)cc(-n2ccc(=O)[nH]c2=O)cc1C(C)(C)C (single isomer, unassigned) [IB-L0-2.15] | < 10 | 10 to 100 | 100 to 1000 | 10 to 100 |  |  |  |  |  |  | 
COc1c(-c2ccc3c(c2)CC[C@@H]3C(C)(C)NS(C)(=O)=O)cc(-n2ccc(=O)[nH]c2=O)cc1C(C)(C)C (single isomer, unassigned) [IB-L0-2.22] | 10 to 100 | 10 to 100 | 100 to 1000 | 10 to 100 |  |  |  |  |  |  | 
COc1c(-c2ccc3c(c2)CC[C@H]3C(C)(C)NS(C)(=O)=O)cc(-n2ccc(=O)[nH]c2=O)cc1C(C)(C)C (single isomer, unassigned) [IB-L0-2.37] | 100 to 1000 | 100 to 1000 | > 1000 | 100 to 1000 |  |  |  |  |  |  | 
COc1c(-c2ccc(/C=N/NS(C)(=O)=O)cc2)cc(N2CCC(=O)NC2=O)cc1C(C)(C)C [IA-L0-1.1, (E)-N′-((3′-tert-butyl-5′-(2,4-dioxotetrahydropyrimidin-1(2H)-yl)-2′-methoxybiphenyl-4-yl)methylene)methanesulfonohydrazide] | < 10 | 10 to 100 | 100 to 1000 | < 10 |  |  |  |  |  |  | 
COc1c(-c2ccc(/C(C)=N/NS(C)(=O)=O)cc2)cc(N2CCC(=O)NC2=O)cc1C(C)(C)C [IA-L0-1.2, (E)-N′-(1-(3′-tert-butyl-5′-(2,4-dioxotetrahydropyrimidin-1(2H)-yl)-2′-methoxybiphenyl-4-yl)ethylidene)methanesulfonohydrazide] | 10 to 100 | 10 to 100 | 100 to 1000 | 10 to 100 |  |  |  |  |  |  | 
COc1c(-c2cc(F)c(/C=N/NS(C)(=O)=O)c(F)c2)cc(N2CCC(=O)NC2=O)cc1C(C)(C)C [IA-L0-1.3, (E)-N′-((3′-tert-butyl-5′-(2,4-dioxotetrahydropyrimidin-1(2H)-yl)-3,5-difluoro-2′-methoxybiphenyl-4-yl)methylene)methanesulfonohydrazide] | 100 to 1000 | 100 to 1000 | 100 to 1000 | 100 to 1000 |  |  |  |  |  |  | 
COc1c(-c2ccc(/C=N/NS(C)(=O)=O)c(F)c2)cc(N2CCC(=O)NC2=O)cc1C(C)(C)C [IA-L0-1.4, (E)-N′-((3′-tert-butyl-5′-(2,4-dioxotetrahydropyrimidin-1(2H)-yl)-3-fluoro-2′-methoxybiphenyl-4-yl)methylene)methanesulfonohydrazide] | 10 to 100 | 10 to 100 | 100 to 1000 | 10 to 100 |  |  |  |  |  |  | 
COc1ccc(-c2cc(N3CCC(=O)NC3=O)cc(C(C)(C)C)c2OC)cc1/C=N/NS(C)(=O)=O [IA-L0-1.5, (E)-N′-((3′-tert-butyl-5′-(2,4-dioxotetrahydropyrimidin-1(2H)-yl)-2′,4-dimethoxy-biphenyl-3-yl)methylene)methanesulfonohydrazide] | 100 to 1000 | 100 to 1000 | > 1000 | > 1000 |  |  |  |  |  |  | 
COc1c(-c2ccc(/C=N/NS(C)(=O)=O)c(F)c2F)cc(N2CCC(=O)NC2=O)cc1C(C)(C)C [IA-L0-1.6, (E)-N′-((3′-tert-butyl-5′-(2,4-dioxotetrahydropyrimidin-1(2H)-yl)-2,3-difluoro-2′-methoxybiphenyl-4-yl)methylene)methanesulfonohydrazide] | 10 to 100 | 10 to 100 | 100 to 1000 | 10 to 100 |  |  |  |  |  |  | 
COc1c(-c2cccc(/C=N/NS(C)(=O)=O)c2)cc(N2CCC(=O)NC2=O)cc1C(C)(C)C [IA-L0-1.7, (E)-N′-((3′-tert-butyl-5′-(2,4-dioxotetrahydropyrimidin-1(2H)-yl)-2′-methoxybiphenyl-3-yl)methylene)methanesulfonohydrazide] | > 1000 | 100 to 1000 | > 1000 | > 1000 |  |  |  |  |  |  | 
COc1c(-c2cccc(/C(C)=N\NS(C)(=O)=O)c2)cc(N2CCC(=O)NC2=O)cc1C(C)(C)C [IA-L0-1.8, (Z)—N′-(1-(3′-tert-butyl-5′-(2,4-dioxotetrahydropyrimidin-1(2H)-yl)-2′-methoxybiphenyl-3-yl)ethylidene)methanesulfonohydrazide] | 100 to 1000 | 100 to 1000 | > 1000 | > 1000 |  |  |  |  |  |  | 
COc1c(-c2ncc(-c3cccc(NS(C)(=O)=O)c3)o2)cc(N2CCC(=O)NC2=O)cc1C(C)(C)C [IA-L0-1.9, N-(3-(2-(3-tert-butyl-5-(2,4-dioxotetrahydropyrimidin-1(2H)-yl)-2-methoxyphenyl)oxazol-5-yl)phenyl)methanesulfonamide] | 10 to 100 | 100 to 1000 | > 1000 | 100 to 1000 |  |  |  |  |  |  | 
COc1c(/C=C\c2ccc(NS(C)(=O)=O)cc2)cc(N2CCC(=O)NC2=O)cc1C(C)(C)C [IA-L1-1.10, (Z)-N-(4-(3-tert-butyl-5-(2,4-dioxotetrahydropyrimidin-1(2H)-yl)-2-methoxystyryl)phenyl)methanesulfonamide] | 10 to 100 | 10 to 100 | 10 to 100 | 10 to 100 |  |  |  |  |  |  | 
COc1c(/C=C\c2ccc(NS(C)(=O)=O)cc2)cc(N2CCC(=O)NC2=O)cc1C(C)(C)C [IA-L1-1.20, (Z)—N-(4-(3-tert-butyl-5-(2,4-dioxotetrahydropyrimidin-1(2H)-yl)-2-methoxystyryl)phenyl)methanesulfonamide] | < 10 |  |  |  | 10 to 100 | 10 to 100 | 10 to 100 |  |  |  | 
COc1cc(NS(C)(=O)=O)ccc1/C=C/c1cc(N2CCC(=O)NC2=O)cc(C(C)(C)C)c1OC [IA-L1-1.27, N-(4-{(E)-2-[3-tert-Butyl-5-(dioxo-tetrahydro-pyrimidin-1-yl)-2-methoxy-phenyl]-vinyl}-3-methoxy-phenyl)-methanesulfonamide] |  |  |  |  |  |  |  | < 10 | 10 to 100 | 10 to 100 | < 10
CC(C)(C)c1cc(C#Cc2ccc(NS(C)(=O)=O)cc2)cc(N2CCC(=O)NC2=O)c1 [IA-L2-1.1, N-(4-((3-tert-butyl-5-(2,4-dioxotetrahydropyrimidin-1(2H)-yl)phenyl)ethynyl)phenyl)-methanesulfonamide] | 10 to 100 | < 10 | 100 to 1000 | 10 to 100 |  |  |  |  |  |  | 
Cc1cc(NS(C)(=O)=O)ccc1C#Cc1cc(N2CCC(=O)NC2=O)cc(C(C)(C)C)c1 [IA-L2-1.2, N-(4-((3-tert-butyl-5-(2,4-dioxotetrahydropyrimidin-1(2H)-yl)phenyl)ethynyl)-3-methyl-phenyl)methanesulfonamide] | < 10 | < 10 | 10 to 100 | 10 to 100 |  |  |  |  |  |  | 
CC(C)(C)c1cc(C#Cc2ccc(NS(C)(=O)=O)cc2Cl)cc(N2CCC(=O)NC2=O)c1 [IA-L2-1.3, N-(4-((3-tert-butyl-5-(2,4-dioxotetrahydropyrimidin-1(2H)-yl)phenyl)ethynyl)-3-chlorophenyl)methanesulfonamide] | < 10 | < 10 | 10 to 100 | < 10 |  |  |  |  |  |  | 
COc1c(C#Cc2ccccc2)cc(N2CCC(=O)NC2=O)cc1C(C)(C)C [IA-L2-1.4, 1-(3-tert-butyl-4-methoxy-5-(phenylethynyl)phenyl)dihydropyrimidine-2,4(1H,3H)-dione] | 100 to 1000 | 100 to 1000 | 100 to 1000 | 100 to 1000 |  |  |  |  |  |  | 
COc1c(C#Cc2cccc(NS(C)(=O)=O)c2)cc(N2CCC(=O)NC2=O)cc1C(C)(C)C [IA-L2-1.7, N-(3-((3-tert-butyl-5-(2,4-dioxotetrahydropyrimidin-1(2H)-yl)-2-methoxyphenyl)ethynyl)phenyl)methanesulfonamide] | 10 to 100 | 10 to 100 | > 1000 | 100 to 1000 |  |  |  |  |  |  | 
COc1c(C#Cc2ccc(NS(C)(=O)=O)cc2)cc(N2CCC(=O)NC2=O)cc1C(C)(C)C [IA-L2-1.8, N-(4-((3-tert-butyl-5-(2,4-dioxotetrahydropyrimidin-1(2H)-yl)-2-methoxyphenyl)ethynyl)-phenyl)methanesulfonamide] | < 10 | < 10 | 10 to 100 | < 10 |  |  |  |  |  |  | 
COc1c(C#Cc2cnc(NS(C)(=O)=O)cn2)cc(-n2ccc(=O)[nH]c2=O)cc1C(C)(C)C [IB-L2-1.9, N-(5-((3-tert-butyl-5-(2,4-dioxo-3,4-dihydropyrimidin-1(2H)-yl)-2-methoxyphenyl)ethynyl)-pyrazin-2-yl)methanesulfonamide] | 100 to 1000 | 10 to 100 | > 1000 |  |  |  |  |  |  |  | 
COc1c(C(=O)Nc2ccc(NS(C)(=O)=O)cc2)cc(-n2c(C)cc(=O)[nH]c2=O)cc1C(C)(C)C [IB-L3-1.3, 3-tert-butyl-2-methoxy-5-(6-methyl-2,4-dioxo-3,4-dihydropyrimidin-1(2H)-yl)-N-(4-(methylsulfonamido)phenyl)benzamide] | 100 to 1000 | > 1000 |  | 100 to 1000 |  |  |  |  |  |  | 
